Experimental data published in paper PMC4401096 (Scientific Reports, 2015).
Read-outs that look alike come from different tables or passages of the source.

Columns and labels:
[1] = Species comparison of DACB glucuronidation in animal liver microsomes; assay type: in vitro ADME
[2] = HLMs
Protocol: (§1) The standard incubation system for the UGT reaction included HLMs (5 mg of protein/mL), UDPGA (40 mM), Tris-HCl buffer (pH 7.4), MgCl2 (50 mM), 25 μg/mL alamethicin, and substrates in a final volume of 200 μL. The volume of organic solvent was less than 1%. After 60 min of incubation at 37°C, the reaction was terminated by adding 0.1 mL of methanol. The sample was then centrifuged at 20,000 g for 20 minutes to obtain the supernatant for LC-UV-ESI analysis.
(§2) To ensure that less than 10% of the substrate was metabolized in all incubations, different incubation times and protein concentration conditions were selected with 60 min of incubation and 0.15 to 0.75 mg of protein, to confirm the linear interval of metabolite turnover rates. The kinetic models used for analysis were Michaelis–Menten kinetics (eq. 1), biphasic kinetics (eq. 2) and inhibition kinetics (eq. 3)[32]. [drawing 1] [drawing 2] […] Ksi is the constant describing the substrate inhibition interaction. All of the incubations were performed in three independent experiments in duplicate. Kinetic constants were obtained using Origin 7.5 (OriginLab Corp., Northampton, MA) and were reported as the mean ± standard error (S.E.) of the parameter estimate.

[3] = M-2 (16-O-glucuronidation), HIMs
Protocol: as §1, §2

[4] = RLMs
Protocol: as §1, §2

[5] = MLMs
Protocol: as §1, §2

[6] = DLMs
Protocol: as §1, §2

[7] = 3-O-Glucuronide (M-1), TLMs
Protocol: as §1, §2

[8] = 16-O-Glucuronide (M-2), PLMs
UGT1A4 = target: T1, UGT1A4 (Homo sapiens, UniProt P22310)
T1 sequence (P22310 29-534): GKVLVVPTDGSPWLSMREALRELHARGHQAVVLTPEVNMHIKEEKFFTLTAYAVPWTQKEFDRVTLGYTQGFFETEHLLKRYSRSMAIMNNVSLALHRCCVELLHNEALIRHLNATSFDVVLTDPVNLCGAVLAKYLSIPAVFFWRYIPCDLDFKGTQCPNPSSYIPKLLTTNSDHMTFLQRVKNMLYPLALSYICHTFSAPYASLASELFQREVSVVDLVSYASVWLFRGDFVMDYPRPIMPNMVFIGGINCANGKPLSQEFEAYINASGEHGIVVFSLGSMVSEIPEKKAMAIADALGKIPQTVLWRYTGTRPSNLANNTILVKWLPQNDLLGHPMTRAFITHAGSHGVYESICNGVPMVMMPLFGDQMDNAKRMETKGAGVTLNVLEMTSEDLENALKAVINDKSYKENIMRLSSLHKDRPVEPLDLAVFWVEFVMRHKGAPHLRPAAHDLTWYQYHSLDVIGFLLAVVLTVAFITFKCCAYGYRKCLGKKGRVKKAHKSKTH
Protocol: (§3) All of the incubations were performed for 60 min using HLMs with a concentration of 0.3 mg of protein/mL, 0.05 mg of protein/mL for UGT1A3 and 0.25 mg of protein/mL for UGT1A4. Similarly, for the UGT1A4 isoform, hecogenin (1–80 μM) was used as a specific inhibitor to determine the differences of inhibition effects between HLMs and UGT1A4.

UGT1A3 = target: T2, UGT1A3 (Homo sapiens, UniProt P35503)
T2 sequence (P35503 29-534): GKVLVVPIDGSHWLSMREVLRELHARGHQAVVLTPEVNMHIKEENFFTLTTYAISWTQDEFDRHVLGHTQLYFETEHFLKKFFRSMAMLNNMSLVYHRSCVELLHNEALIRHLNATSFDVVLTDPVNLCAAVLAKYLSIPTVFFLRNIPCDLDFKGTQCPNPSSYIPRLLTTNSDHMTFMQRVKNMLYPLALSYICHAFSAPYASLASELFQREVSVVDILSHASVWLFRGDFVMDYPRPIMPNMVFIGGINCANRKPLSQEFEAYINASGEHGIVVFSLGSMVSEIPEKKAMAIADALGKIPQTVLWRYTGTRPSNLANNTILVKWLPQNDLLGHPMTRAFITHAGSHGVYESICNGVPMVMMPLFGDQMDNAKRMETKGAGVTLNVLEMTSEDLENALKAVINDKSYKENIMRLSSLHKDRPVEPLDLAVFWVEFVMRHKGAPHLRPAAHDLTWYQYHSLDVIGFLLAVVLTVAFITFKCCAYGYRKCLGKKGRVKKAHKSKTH
Protocol: as §3

[9] = animal species liver microsomes
[10] = liver microsomes of various species

## C[C@]12CC[C@H](O)C[C@H]1CC[C@@H]1[C@@H]2CC[C@]2(C)[C@@H](c3ccc(=O)oc3)[C@@H](O)[C@H]3O[C@]132 [DACB, desacetylcinobufagin]
[1]; [9]
  order of CLint activities of UGT1A3, M-2 formation: MLM > RLM > PLM > DLM
  order of UGT1A4 activities by CLint values, M-1 formation: Rabbit > Monkey > Mouse > Dog > Pig
[1]; [10]
  occurrence of 3-O-glucuronidation in species: occurs in DLMs, MLMs, MsLMs, RLMs and TLMs
  occurrence of 16-O-glucuronidation in species: can occur in all species except RtLMs
[2]; M-1 (3-O-glucuronidation)
  Vmax: 0.061 ± 0.002 nmol/min/mg
[2]; M-2 (16-O-glucuronidation)
  Vmax: 0.074 ± 0.004 nmol/min/mg
[3]
  Vmax: 0.007 ± 0.002 nmol/min/mg
[4]; 3-O-Glucuronide (M-1)
  Vmax: 0.107 ± 0.002 nmol/min/mg
[4]; 16-O-Glucuronide (M-2)
  Vmax: 0.018 ± 0.001 nmol/min/mg
[5]; 3-O-Glucuronide (M-1)
  Vmax: 0.174 ± 0.008 nmol/min/mg
[5]; 16-O-Glucuronide (M-2)
  Vmax: 0.288 ± 0.002 nmol/min/mg
[6]; 3-O-Glucuronide (M-1), biphasic kinetics, first line
  Vmax: 0.005 ± 0.001 nmol/min/mg
[6]; 3-O-Glucuronide (M-1), biphasic kinetics, second line
  Vmax: 0.009 ± 0.001 nmol/min/mg
[6]; 16-O-Glucuronide (M-2)
  Vmax: 0.111 ± 0.010 nmol/min/mg
[7]
  Km: 63.6 ± 5.33 µM
  Vmax: 0.106 ± 0.002 nmol/min/mg
[8]
  Vmax: 0.032 ± 0.001 nmol/min/mg

## CN1CCN(CCCN2c3ccccc3Sc3ccc(C(F)(F)F)cc32)CC1 [TFP, trifluoperazine]
UGT1A4
  inhibition of the 3-O-glucuronidation of DACB: significantly inhibit

## CC1(C)[C@@H](O)CC[C@]2(C)[C@H]3C(=O)C=C4[C@@H]5C[C@@](C)(C(=O)O)CC[C@]5(C)CC[C@@]4(C)[C@]3(C)CC[C@@H]12 [glycyrrhetinic acid]
UGT1A3
  inhibition of the formation of M-2 (16-O-glucuronate): significantly inhibited
UGT1A3; glycyrrhetinic acid 0–60 μM, UGT1A3 and HLMs
  IC50 values for M-2 formation, UGT1A3 compared with HLMs: equal

## hecogenin
UGT1A4
  inhibition of the 3-O-glucuronidation of DACB: significantly inhibit
UGT1A4; hecogenin 1–80 μM, UGT1A4 and HLMs
  IC50 values for M-1 formation, UGT1A4 compared with HLMs: similar
